# Assay results as given in PubChem BioAssay AID1963984 (Molecular Pharmacology Branch, DTP, NCI, 2024).
# pIC50: −log10 of the molar value.
# Tested on: 233499-124-R-J3-PDC spheroids with HUVEC/MSC, viability
# Test: Anticancer human tumor 233499-124-R-J3-PDC patient-derived colon adenocarcinoma cell line growth inhibition [PI3K]
# Conditions: for viability, T/C: stronger effect = lower value
# From the text: Combinatorial screen of targeted agents with the PI3K inhibitors inavolisib, alpelisib, duvelisib, and copanlisib in multi-cell type tumor spheroids
# A high-throughput screen of multi-cell type tumor spheroids was designed to identify active combinations of targeted small molecules and PI3K pathway inhibitors. Complex spheroids include a stromal component modeled by human endothelial cells (HUVEC) and fibroblasts modeled by human mesenchymal stem cells (MSCs). The concentration ranges selected for each drug and investigational agent were based upon clinically achievable concentrations if the clinical Cmax of the agent was known.
# Compounds. The drugs and investigational agents: inavolisib (NSC800729), alpelisib (NSC765974), duvelisib (NSC772469), copanlisib (NSC816437), ipatasertib (NSC767898), afuresertib (NSC778305), talazoparib (NSC767125), sapanisertib (NSC764658), selumetinib (NSC741078), tovorafenib (DAY101, NSC766906), vemurafenib (NSC761431), ravoxertinib (NSC781343), sotorasib (NSC818433), MRTX1133 (NSC 836407), abemaciclib (NSC 768073), palbociclib (NSC758247), venetoclax (NSC 766270), SY5609 (NSC837396), enzalutamide (NSC755605), and darolutamide (NSC825331), were obtained from the National Cancer Institute (NCI) Developmental Therapeutics Program Chemical Repository. The FDA-approved anticancer drug set is available from the NCI Developmental Therapeutics Program. […] The stock solutions were prepared in dimethyl sulfoxide (DMSO, Sigma-Aldrich, St. Louis, MO, cat. D2650) at 800-fold the tested concentration and stored at -70 degrees C prior to their use. All drugs and investigational agents were tested over a range starting from a high concentration at or near the clinical Cmax and decreasing in half-log increments. If the clinical Cmax for an agent had not been determined, the highest concentration tested was 10 microM.
# Cell Culture. All cells were maintained in an incubator at 37 degrees C and 5% CO2 with 95% humidity. The PDC lines were cultured according to standard operating procedures established by the NCI PDMR (https://pdmr.cancer.gov/sops/default.htm). All PDCs were thawed and cultured in Matrigel-coated flasks prepared with a working solution of 1X Ham's F-12 nutrient mix, without supplementation (Invitrogen, Waltham, MA, cat. 11765054), 100 U/mL penicillin-streptomycin (Invitrogen, cat. 15140122), and 2.5% Matrigel (Corning Inc., Corning, NY, cat. 354248) for the first three passages. The 354836-022-R-J1-PDC, 475296-252-R-J1-PDC, and 997726-040-R-J2-PDC lines were cultured in 6A media, which includes advanced DMEM/F-12 (Thermo Fisher Scientific, cat. 12634028), 10 mM HEPES (Thermo Fisher Scientific, cat. 15630080), 1X GlutaMAX supplement (Thermo Fisher Scientific, cat. 35050061), 0.1 mg/mL primocin (InvivoGen, San Diego, CA, cat. ant-pm-2), 10% defined fetal bovine serum, heat inactivated (HyClone Laboratories Inc., Logan, UT, cat. SH30070.03HI), 50% L-WRN conditioned media (ATCC, cat. CRL-3276), 1.25 mM N-Acetyl-L-cysteine (Sigma-Aldrich, cat. A9165), 10 mM nicotinamide (Sigma-Aldrich, cat. N0636), 1X B-27 supplement (Thermo Fisher Scientific, cat. 17504044), 1X N-2 supplement (Thermo Fisher Scientific, cat. 17502048), and 10 microM Y-27632 dihydrochloride (Tocris Bioscience, Bristol, United Kingdom, cat. 1254). The 624824-186-R-J2-PDC line was cultured in 6C/Colon 1B media, which includes all 6A media components plus 50 ng/mL human EGF recombinant protein (Thermo Fisher Scientific, cat. PHG0311). […]
# [1] = curve of first compound, second compound 0.00316 µM
# [2] = curve of first compound, second compound 0.01 µM
# [3] = curve of first compound, second compound 0.0316 µM
# [4] = curve of first compound, second compound 0.1 µM
# [5] = curve of first compound, second compound 0.316 µM
# [6] = curve of first compound, second compound 1 µM
# [7] = second compound 0.00316 µM, first compound 0.0316 µM
# [8] = second compound 0.00316 µM, first compound 0.1 µM
# [9] = second compound 0.01 µM, first compound 0.0316 µM
# [10] = second compound 0.01 µM, first compound 0.1 µM
# [11] = second compound 0.0316 µM, first compound 0.0316 µM
# [12] = second compound 0.0316 µM, first compound 0.1 µM
# [13] = second compound 0.1 µM, first compound 0.0316 µM
# [14] = second compound 0.1 µM, first compound 0.1 µM
# [15] = second compound 0.316 µM, first compound 0.0316 µM
# [16] = second compound 0.316 µM, first compound 0.1 µM
# [17] = second compound 1 µM, first compound 0.0316 µM
# [18] = second compound 1 µM, first compound 0.1 µM
# 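Further: spheroids exposed to agents for seven days before readout.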
# 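Wherever viability, T/C is given: percent viability relative to DMSO vehicle control taken as 100%.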
smiles,measurement,setting,value
Cn1ncnc1[C@H]1c2n[nH]c(=O)c3cc(F)cc(c23)N[C@@H]1c1ccc(F)cc1 + COc1c(OCCCN2CCOCC2)ccc2c3n(c(=NC(=O)c4cnc(N)nc4)nc12)CCN3,pIC50,[1],< 7.00
same,pIC50,[2],< 7.00
same,pIC50,[3],< 7.00
same,pIC50,[4],< 7.00
same,pIC50,[5],> 9.50
same,pIC50,[6],> 9.50
same,"viability, T/C","second compound 0.00316 µM, first compound 0.000316 µM",97.7%
same,"viability, T/C","second compound 0.00316 µM, first compound 0.001 µM",111%
same,"viability, T/C","second compound 0.00316 µM, first compound 0.00316 µM",97.2%
same,"viability, T/C","second compound 0.00316 µM, first compound 0.01 µM",111%
same,"viability, T/C",[7],90.2%
same,"viability, T/C",[8],85.9%
same,"viability, T/C","second compound 0.01 µM, first compound 0.000316 µM",90.1%
same,"viability, T/C","second compound 0.01 µM, first compound 0.001 µM",92.3%
same,"viability, T/C","second compound 0.01 µM, first compound 0.00316 µM",90%
same,"viability, T/C","second compound 0.01 µM, first compound 0.01 µM",78.2%
same,"viability, T/C",[9],90.9%
same,"viability, T/C",[10],66.9%
same,"viability, T/C","second compound 0.0316 µM, first compound 0.000316 µM",94%
same,"viability, T/C","second compound 0.0316 µM, first compound 0.001 µM",81.4%
same,"viability, T/C","second compound 0.0316 µM, first compound 0.00316 µM",89.2%
same,"viability, T/C","second compound 0.0316 µM, first compound 0.01 µM",83.9%
same,"viability, T/C",[11],80.9%
same,"viability, T/C",[12],79.6%
same,"viability, T/C","second compound 0.1 µM, first compound 0.000316 µM",81.1%
same,"viability, T/C","second compound 0.1 µM, first compound 0.001 µM",75.3%
same,"viability, T/C","second compound 0.1 µM, first compound 0.00316 µM",75.9%
same,"viability, T/C","second compound 0.1 µM, first compound 0.01 µM",76.7%
same,"viability, T/C",[13],65.9%
same,"viability, T/C",[14],66.7%
same,"viability, T/C","second compound 0.316 µM, first compound 0.000316 µM",34.7%
same,"viability, T/C","second compound 0.316 µM, first compound 0.001 µM",27.6%
same,"viability, T/C","second compound 0.316 µM, first compound 0.00316 µM",36.6%
same,"viability, T/C","second compound 0.316 µM, first compound 0.01 µM",33.9%
same,"viability, T/C",[15],28.4%
same,"viability, T/C",[16],35%
same,"viability, T/C","second compound 1 µM, first compound 0.000316 µM",4.32%
same,"viability, T/C","second compound 1 µM, first compound 0.001 µM",8.27%
same,"viability, T/C","second compound 1 µM, first compound 0.00316 µM",5.26%
same,"viability, T/C","second compound 1 µM, first compound 0.01 µM",9.55%
same,"viability, T/C",[17],11.9%
same,"viability, T/C",[18],11.5%
CC1(C)CCC(Nc2ncc(C(F)(F)F)c(-c3c[nH]c4c(P(C)(C)=O)c(C#N)ccc34)n2)CN1 (stereo not given) + CC(Nc1ccc2c(c1)OCCn1cc(N3C(=O)OCC3C(F)F)nc1-2)C(N)=O,pIC50,[1],7.13
same,pIC50,[2],> 7.50
same,pIC50,[3],7.03
same,pIC50,[4],> 7.50
same,pIC50,[5],7.07
same,pIC50,[6],> 7.50
same,"viability, T/C",[7],55.3%
same,"viability, T/C",[8],58.7%
same,"viability, T/C","second compound 0.00316 µM, first compound 0.316 µM",24.6%
same,"viability, T/C","second compound 0.00316 µM, first compound 1 µM",19.3%
same,"viability, T/C","second compound 0.00316 µM, first compound 3.16 µM",34.4%
same,"viability, T/C","second compound 0.00316 µM, first compound 10 µM",1.55%
same,"viability, T/C",[9],39.4%
same,"viability, T/C",[10],42.9%
same,"viability, T/C","second compound 0.01 µM, first compound 0.316 µM",34.9%
same,"viability, T/C","second compound 0.01 µM, first compound 1 µM",22.1%
same,"viability, T/C","second compound 0.01 µM, first compound 3.16 µM",22.7%
same,"viability, T/C","second compound 0.01 µM, first compound 10 µM",1.45%
same,"viability, T/C",[11],79.9%
same,"viability, T/C",[12],44.4%
same,"viability, T/C","second compound 0.0316 µM, first compound 0.316 µM",31.4%
same,"viability, T/C","second compound 0.0316 µM, first compound 1 µM",17%
same,"viability, T/C","second compound 0.0316 µM, first compound 3.16 µM",17.1%
same,"viability, T/C","second compound 0.0316 µM, first compound 10 µM",1.3%
same,"viability, T/C",[13],36.5%
same,"viability, T/C",[14],40.7%
same,"viability, T/C","second compound 0.1 µM, first compound 0.316 µM",24.5%
same,"viability, T/C","second compound 0.1 µM, first compound 1 µM",13.8%
same,"viability, T/C","second compound 0.1 µM, first compound 3.16 µM",18.9%
same,"viability, T/C","second compound 0.1 µM, first compound 10 µM",4.74%
same,"viability, T/C",[15],67.4%
same,"viability, T/C",[16],43%
same,"viability, T/C","second compound 0.316 µM, first compound 0.316 µM",34.3%
same,"viability, T/C","second compound 0.316 µM, first compound 1 µM",19.4%
same,"viability, T/C","second compound 0.316 µM, first compound 3.16 µM",20.7%
same,"viability, T/C","second compound 0.316 µM, first compound 10 µM",2.38%
same,"viability, T/C",[17],49%
same,"viability, T/C",[18],29.3%
same,"viability, T/C","second compound 1 µM, first compound 0.316 µM",28.6%
same,"viability, T/C","second compound 1 µM, first compound 1 µM",18.6%
same,"viability, T/C","second compound 1 µM, first compound 3.16 µM",25.9%
same,"viability, T/C","second compound 1 µM, first compound 10 µM",0.86%
CC(=O)c1c(C)c2cnc(Nc3ccc(N4CCNCC4)cn3)nc2n(C2CCCC2)c1=O,"viability, T/C",compound 0.000316 µM,98.4% [middle of 4 runs]
same,"viability, T/C",compound 0.001 µM,98.5% [middle of 4 runs]
same,"viability, T/C",compound 0.00316 µM,85.1% [middle of 4 runs]
same,"viability, T/C",compound 0.01 µM,88.2% [middle of 4 runs]
same,"viability, T/C",compound 0.1 µM,91.2% [middle of 4 runs]
same,pIC50,curve of compound,< 7.00
